PubChem BioAssay (NCI)
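Where inhibition never reached the appropriate level, the endpoint shown equals the highest concentration tested. Otherwise, values were interpolated linearly from a five-concentration, 48-hour dose response in 96-well plates. Abbreviation: GI50, concentration required for 50% inhibition of growth. TGI: total growth inhibition.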

What was measured:
Assay in all cases: NCI tumour cell line growth inhibition, 48 h
UO-31 renal = tested on: UO-31 renal
SK-OV-3 ovarian = tested on: SK-OV-3 ovarian
COLO 205 colon = tested on: COLO 205 colon
BT-549 breast = tested on: BT-549 breast
HL-60(TB) leukemia = tested on: HL-60(TB) leukemia
PC-3 prostate = tested on: PC-3 prostate
SK-MEL-5 melanoma = tested on: SK-MEL-5 melanoma
SNB-19 CNS = tested on: SNB-19 CNS
DU-145 prostate = tested on: DU-145 prostate
TK-10 renal = tested on: TK-10 renal
SW-620 colon = tested on: SW-620 colon
SF-295 CNS = tested on: SF-295 CNS
CAKI-1 renal = tested on: CAKI-1 renal
ACHN renal = tested on: ACHN renal
RXF 393 renal = tested on: RXF 393 renal
NCI-H226 lung = tested on: NCI-H226 lung
SF-268 CNS = tested on: SF-268 CNS
RPMI-8226 leukemia = tested on: RPMI-8226 leukemia
SNB-75 CNS = tested on: SNB-75 CNS
OVCAR-3 ovarian = tested on: OVCAR-3 ovarian
LOX IMVI melanoma = tested on: LOX IMVI melanoma
K-562 leukemia = tested on: K-562 leukemia
KM12 colon = tested on: KM12 colon
HT29 colon = tested on: HT29 colon
NCI/ADR-RES ovarian = tested on: NCI/ADR-RES ovarian
UACC-62 melanoma = tested on: UACC-62 melanoma
T-47D breast = tested on: T-47D breast
MOLT-4 leukemia = tested on: MOLT-4 leukemia
MDA-MB-231 breast = tested on: MDA-MB-231 breast
IGROV1 ovarian = tested on: IGROV1 ovarian
UACC-257 melanoma = tested on: UACC-257 melanoma
CCRF-CEM leukemia = tested on: CCRF-CEM leukemia
MALME-3M melanoma = tested on: MALME-3M melanoma
A549 NSCLC = tested on: A549 NSCLC
OVCAR-5 ovarian = tested on: OVCAR-5 ovarian
NCI-H522 lung = tested on: NCI-H522 lung
HCT-15 colon = tested on: HCT-15 colon
U251 CNS = tested on: U251 CNS
HCT-116 colon = tested on: HCT-116 colon
OVCAR-8 ovarian = tested on: OVCAR-8 ovarian
SN12C renal = tested on: SN12C renal
NCI-H460 lung = tested on: NCI-H460 lung
A498 renal = tested on: A498 renal
SR leukemia = tested on: SR leukemia
SK-MEL-28 melanoma = tested on: SK-MEL-28 melanoma
HCC-2998 colon = tested on: HCC-2998 colon
HOP-62 NSCLC = tested on: HOP-62 NSCLC
786-0 renal = tested on: 786-0 renal
OVCAR-4 ovarian = tested on: OVCAR-4 ovarian
MDA-MB-435 = tested on: MDA-MB-435
NCI-H23 lung = tested on: NCI-H23 lung
HOP-92 NSCLC = tested on: HOP-92 NSCLC
SF-539 CNS = tested on: SF-539 CNS
M14 melanoma = tested on: M14 melanoma
MCF7 breast = tested on: MCF7 breast
SK-MEL-2 melanoma = tested on: SK-MEL-2 melanoma
HS 578T breast = tested on: HS 578T breast

In the case of CS(=O)(=O)Nc1ccc(Nc2c3ccccc3nc3cc([N+](=O)[O-])ccc23)cc1, the GI50 (UO-31 renal) is reported as 2390 nM, the TGI (UO-31 renal) is reported as 13600 nM and the GI50 (SK-OV-3 ovarian) is reported as 3500 nM. For the same compound, the TGI (SK-OV-3 ovarian) was 15100 nM, the GI50 (COLO 205 colon) was 1430 nM and the TGI (COLO 205 colon) was 6060 nM. For the same compound, the GI50 (BT-549 breast) was 2290 nM, the TGI (BT-549 breast) was 9320 nM and the GI50 (HL-60(TB) leukemia) was 1690 nM. For the same compound, the TGI (HL-60(TB) leukemia) was 5880 nM, the GI50 (PC-3 prostate) was 1590 nM and the TGI (PC-3 prostate) was 11800 nM. It also gave a GI50 (SK-MEL-5 melanoma) of 1100 nM, a TGI (SK-MEL-5 melanoma) of 4370 nM and a GI50 (SNB-19 CNS) of 1610 nM. It also gave a TGI (SNB-19 CNS) of 14900 nM, a GI50 (DU-145 prostate) of 296 nM and a TGI (DU-145 prostate) of 6500 nM. For the same compound, the GI50 (TK-10 renal) was 3380 nM, the TGI (TK-10 renal) was 11900 nM and the GI50 (SW-620 colon) was 1090 nM. It also gave a TGI (SW-620 colon) of 6000 nM, a GI50 (SF-295 CNS) of 1420 nM and a TGI (SF-295 CNS) of 7770 nM. It also gave a GI50 (CAKI-1 renal) of 2010 nM, a TGI (CAKI-1 renal) of 7430 nM and a GI50 (ACHN renal) of 1420 nM. The TGI (ACHN renal) was 6740 nM, the GI50 (RXF 393 renal) was 1890 nM and the TGI (RXF 393 renal) was 4860 nM. It also gave a GI50 (NCI-H226 lung) of 1260 nM, a TGI (NCI-H226 lung) of 6950 nM and a GI50 (SF-268 CNS) of 615 nM. It also gave a TGI (SF-268 CNS) of 7030 nM, a GI50 (RPMI-8226 leukemia) of 737 nM and a TGI (RPMI-8226 leukemia) of 4310 nM. The GI50 (SNB-75 CNS) was 1720 nM, the TGI (SNB-75 CNS) was 11800 nM and the GI50 (OVCAR-3 ovarian) was 2050 nM. It also gave a TGI (OVCAR-3 ovarian) of 5870 nM, a GI50 (LOX IMVI melanoma) of 922 nM and a TGI (LOX IMVI melanoma) of 2780 nM. It also gave a GI50 (K-562 leukemia) of 1310 nM, a TGI (K-562 leukemia) of 6960 nM and a GI50 (KM12 colon) of 854 nM. For the same compound, the TGI (KM12 colon) was 3760 nM, the GI50 (HT29 colon) was 2140 nM and the TGI (HT29 colon) was 6130 nM. It also gave a GI50 (NCI/ADR-RES ovarian) of 10000 nM, a TGI (NCI/ADR-RES ovarian) of 26500 nM and a GI50 (UACC-62 melanoma) of 1320 nM. It also gave a TGI (UACC-62 melanoma) of 6310 nM, a GI50 (T-47D breast) of 107 nM and a TGI (T-47D breast) of 2230 nM. It also gave a GI50 (MOLT-4 leukemia) of 235 nM, a TGI (MOLT-4 leukemia) of 1190 nM and a GI50 (MDA-MB-231 breast) of 2100 nM. For the same compound, the TGI (MDA-MB-231 breast) was 6100 nM, the GI50 (IGROV1 ovarian) was 1630 nM and the TGI (IGROV1 ovarian) was 5170 nM. For the same compound, the GI50 (UACC-257 melanoma) was 1820 nM, the TGI (UACC-257 melanoma) was 6440 nM and the GI50 (CCRF-CEM leukemia) was 352 nM. For the same compound, the TGI (CCRF-CEM leukemia) was 2790 nM, the GI50 (MALME-3M melanoma) was 1440 nM and the TGI (MALME-3M melanoma) was 4080 nM. It also gave a GI50 (A549 NSCLC) of 317 nM, a TGI (A549 NSCLC) of 12000 nM and a GI50 (OVCAR-5 ovarian) of 7940 nM. The TGI (OVCAR-5 ovarian) was 23100 nM, the GI50 (NCI-H522 lung) was 1270 nM and the TGI (NCI-H522 lung) was 2800 nM. For the same compound, the GI50 (HCT-15 colon) was 1380 nM, the TGI (HCT-15 colon) was 4010 nM and the GI50 (U251 CNS) was 911 nM. For the same compound, the TGI (U251 CNS) was 11300 nM, the GI50 (HCT-116 colon) was 1100 nM and the TGI (HCT-116 colon) was 6160 nM. The GI50 (OVCAR-8 ovarian) was 1950 nM, the TGI (OVCAR-8 ovarian) was 9530 nM and the GI50 (SN12C renal) was 807 nM. The TGI (SN12C renal) was 8430 nM, the GI50 (NCI-H460 lung) was 41 nM and the TGI (NCI-H460 lung) was 2750 nM. The GI50 (A498 renal) was 1280 nM, the TGI (A498 renal) was 12500 nM and the GI50 (SR leukemia) was 83.7 nM. It also gave a TGI (SR leukemia) of 3160 nM, a GI50 (SK-MEL-28 melanoma) of 2450 nM and a TGI (SK-MEL-28 melanoma) of 7760 nM. The GI50 (HCC-2998 colon) was 1620 nM, the TGI (HCC-2998 colon) was 4240 nM and the GI50 (HOP-62 NSCLC) was 399 nM. The TGI (HOP-62 NSCLC) was 3790 nM, the GI50 (786-0 renal) was 1390 nM and the TGI (786-0 renal) was 10600 nM. The GI50 (OVCAR-4 ovarian) was 2900 nM, the TGI (OVCAR-4 ovarian) was 10400 nM and the GI50 (MDA-MB-435) was 3320 nM. The TGI (MDA-MB-435) was 9060 nM, the GI50 (NCI-H23 lung) was 1690 nM and the TGI (NCI-H23 lung) was 5470 nM. It also gave a GI50 (HOP-92 NSCLC) of 590 nM, a TGI (HOP-92 NSCLC) of 3740 nM and a GI50 (SF-539 CNS) of 2230 nM. For the same compound, the TGI (SF-539 CNS) was 13000 nM, the GI50 (M14 melanoma) was 1420 nM and the TGI (M14 melanoma) was 5810 nM. The GI50 (MCF7 breast) was 51.1 nM, the TGI (MCF7 breast) was 2720 nM and the GI50 (SK-MEL-2 melanoma) was 3460 nM. For the same compound, the TGI (SK-MEL-2 melanoma) was 8850 nM, the GI50 (HS 578T breast) was 2420 nM and the TGI (HS 578T breast) was 13400 nM.
